# Source: patent US7183295B2, “PPAR-activating compound and pharmaceutical composition comprising the compound” (Kowa Co., Ltd., priority 2003, dated 2007)
# Where two headings read alike, the source gives them in different places.
# Key:
# Format in all cases: cell-based
# [1] = target: T1, human PPARα (166–467aa) ligand binding domain (Homo sapiens, UniProt Q07869); test: PPAR transfection (Gal4-LBD luciferase reporter) assay, hPPARα; conditions: read-out: hPPAR, EC50 α (agonist activity)
# T1 construct: human PPARα (166–467aa); expressed in transfected cells; host or cells: COS-7
# T1 sequence (Q07869 166-467): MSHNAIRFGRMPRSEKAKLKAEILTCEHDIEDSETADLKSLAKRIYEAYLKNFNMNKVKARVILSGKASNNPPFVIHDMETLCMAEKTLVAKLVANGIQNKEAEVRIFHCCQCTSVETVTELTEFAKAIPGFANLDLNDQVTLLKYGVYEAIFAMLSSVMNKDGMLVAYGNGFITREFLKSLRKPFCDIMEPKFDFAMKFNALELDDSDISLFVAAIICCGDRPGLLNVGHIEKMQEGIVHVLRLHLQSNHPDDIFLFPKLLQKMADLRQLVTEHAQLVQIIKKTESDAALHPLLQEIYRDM
# Description: (§1) COS-7 cells, which is African green monkey kidney cell line, were used for all transfection assays. Cells were cultured in DMEM medium supplemented with 10% fetal bovine serum, glutamic acid, and an antibiotic under humidified 5% CO2 atmosphere.
# (§2) Cells were transfected by lipofectamine reagent with a mixture containing expression plasmid, firefly luciferase reporter plasmid. And a β-galactosidase expression plasmid used as an internal control for transfection efficiency.
# (§3) Transiently transfected cells were incubated with DMEM with 0.2% FCS with or without compound. And after 16 hours, luciferase activity and β-galactosidase activity of cell lysate were measured.
# (§4) Each compound was dissolved in and diluted with dimethyl sulfoxide (DMSO), and the DMSO concentration of the DMEM medium (containing 0.2% serum) was adjusted to 0.1% upon treatment of cells.
# [2] = target: T2, human PPARγ (182–505aa) ligand binding domain (Homo sapiens, UniProt P37231); test: PPAR transfection (Gal4-LBD luciferase reporter) assay, hPPARγ; conditions: read-out: hPPAR, EC50 γ (agonist activity)
# T2 construct: γ(182–505aa); expressed in transfected cells; host or cells: COS-7
# T2 sequence (P37231 182-505): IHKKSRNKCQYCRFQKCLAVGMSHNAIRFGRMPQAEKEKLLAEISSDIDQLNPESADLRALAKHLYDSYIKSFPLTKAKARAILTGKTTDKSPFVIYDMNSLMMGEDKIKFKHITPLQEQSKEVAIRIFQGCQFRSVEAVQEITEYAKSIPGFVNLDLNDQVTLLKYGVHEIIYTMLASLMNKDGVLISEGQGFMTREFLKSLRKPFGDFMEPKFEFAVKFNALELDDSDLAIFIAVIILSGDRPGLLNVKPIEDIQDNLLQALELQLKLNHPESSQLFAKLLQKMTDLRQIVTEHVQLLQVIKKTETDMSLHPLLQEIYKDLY
# Description: as §1, §2, §3, §4
# [3] = target: T3, human PPARδ (137–441aa) ligand binding domain (Homo sapiens, UniProt Q03181); test: PPAR transfection (Gal4-LBD luciferase reporter) assay, hPPARδ; conditions: read-out: hPPAR, EC50 δ (agonist activity)
# T3 construct: δ (137–441aa); expressed in transfected cells; host or cells: COS-7
# T3 sequence (Q03181 137-441): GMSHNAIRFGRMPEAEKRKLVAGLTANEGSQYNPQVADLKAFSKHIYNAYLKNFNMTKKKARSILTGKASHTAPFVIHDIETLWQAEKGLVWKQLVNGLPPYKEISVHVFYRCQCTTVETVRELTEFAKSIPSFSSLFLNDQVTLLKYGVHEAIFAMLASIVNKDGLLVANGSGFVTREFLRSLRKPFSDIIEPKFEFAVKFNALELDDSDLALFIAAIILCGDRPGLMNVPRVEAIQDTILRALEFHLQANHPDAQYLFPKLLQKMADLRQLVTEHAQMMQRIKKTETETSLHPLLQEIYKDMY
# Description: as §1, §2, §3, §4
# [4] = transfected COS-7 cells, 16 hours, luciferase activity
smiles,measurement,setting,value
"CC(C)(Oc1cccc(CCN(CCOc2ccccc2)c2nc3ccccc3o2)c1)C(=O)O [Example 78, 2-[3-[2-[N-(Benzoxazol-2-yl)-N-2-phenoxyethyl]aminoethyl]phenoxy]-2-methylpropionic acid]",EC50,[1]; [4],0.03 µM
same,EC50,[2]; [4],1.1 µM
same,EC50,[3]; [4],> 100 µM
"COc1ccc(OCCCN(Cc2cccc(O[C@H](C)C(=O)O)c2)c2nc3ccccc3o2)cc1 [Example 82, (R)-2-[3-[[N-(Benzoxazol-2-yl)-N-3-(4-methoxyphenoxy)propyl]aminomethyl]phenoxy]propionic acid]",EC50,[1]; [4],0.002 µM
same,EC50,[2]; [4],1.2 µM
same,EC50,[3]; [4],2.5 µM
"CC[C@@H](Oc1cccc(CN(CCCOc2ccccc2)c2nc3ccccc3o2)c1)C(=O)O [Example 83, (R)-2-[[3-[N-(Benzoxazol-2-yl)-N-3-phenoxypropyl]aminomethyl]phenoxy]butyric acid]",EC50,[1]; [4],0.002 µM
same,EC50,[2]; [4],0.91 µM
same,EC50,[3]; [4],1.6 µM
"CC[C@@H](Oc1cccc(CN(CCCOc2ccc(F)cc2)c2nc3ccccc3o2)c1)C(=O)O [Example 87, (R)-2-[[3-[N-(Benzoxazol-2-yl)-N-3-(4-fluorophenoxy)propyl]aminomethyl]phenoxy]butyric acid]",EC50,[1]; [4],0.003 µM
same,EC50,[2]; [4],0.94 µM
same,EC50,[3]; [4],1.2 µM
"C[C@@H](Oc1cccc(CN(CCCOc2ccccc2)c2nc3ccccc3o2)c1)C(=O)O [Example 88, (R)-2-[[3-[N-(Benzoxazol-2-yl)-N-3-phenoxypropyl]aminomethyl]phenoxy]propionic acid]",EC50,[1]; [4],0.011 µM
same,EC50,[2]; [4],2.9 µM
same,EC50,[3]; [4],3.7 µM
"CC(Oc1cccc(CN(CCCC(=O)c2ccccc2)c2nc3ccccc3o2)c1)C(=O)O (stereo not drawn) [Example 93, 2-[3-[[N-(Benzoxazol-2-yl)-N-(4-oxo-4-phenylbutyl)]aminomethyl]phenoxy]propionic acid]",EC50,[1]; [4],0.009 µM
same,EC50,[2]; [4],> 10 µM
same,EC50,[3]; [4],5.1 µM
COc1ccc(OCCCN(Cc2cccc(OC(C)C(=O)O)c2)c2nc3ccccc3s2)cc1 (stereo not drawn) [Example 96],EC50,[1]; [4],0.001 µM
same,EC50,[2]; [4],1.1 µM
same,EC50,[3]; [4],1.2 µM
CCC(Oc1cccc(CN(CCCOc2ccccc2)c2nc3cc(F)ccc3o2)c1)C(=O)O (stereo not drawn) [Example 132],EC50,[1],0.003 µM
same,EC50,[2],1 µM
same,EC50,[3],1.1 µM
CCC(Oc1cccc(CN(CCCOc2ccc(F)cc2)c2nc3ccc(F)cc3o2)c1)C(=O)O (stereo not drawn) [Example 140],EC50,[1]; [4],0.007 µM
same,EC50,[2]; [4],1.3 µM
same,EC50,[3]; [4],1.8 µM
CCC(Oc1cccc(CN(CCCOc2ccc(C)cc2)c2nc3ccccc3o2)c1)C(=O)O (stereo not drawn) [Example 146],EC50,[1]; [4],0.001 µM
same,EC50,[2]; [4],0.2 µM
same,EC50,[3]; [4],0.1 µM
Cc1ccc2oc(N(CCCOc3ccc(F)cc3)Cc3cccc(OC(C)C(=O)O)c3)nc2c1 (stereo not drawn) [Example 153],EC50,[1]; [4],0.003 µM
same,EC50,[2]; [4],2.5 µM
same,EC50,[3]; [4],1.4 µM
Cc1ccc2oc(N(CCCOc3ccccc3)Cc3cccc(OC(C)C(=O)O)c3)nc2c1 (stereo not drawn) [Example 155],EC50,[1]; [4],0.011 µM
same,EC50,[2]; [4],> 10 µM
same,EC50,[3]; [4],1.8 µM
CC(Oc1cccc(CN(CCCOc2ccc3c(c2)OCO3)c2nc3ccccc3o2)c1)C(=O)O (stereo not drawn) [Example 157],EC50,[1]; [4],0.004 µM
same,EC50,[2]; [4],1.2 µM
same,EC50,[3]; [4],1.3 µM
CCC(Oc1cccc(CN(CCCOc2ccccc2)c2nc3cc4c(cc3o2)OCO4)c1)C(=O)O (stereo not drawn) [Example 158],EC50,[1]; [4],0.005 µM
same,EC50,[2]; [4],1.6 µM
same,EC50,[3]; [4],1.1 µM
CC(Oc1cccc(CN(CCCOc2ccccc2)c2nc3cc4c(cc3o2)OCO4)c1)C(=O)O (stereo not drawn) [Example 159],EC50,[1]; [4],0.009 µM
same,EC50,[2]; [4],> 10 µM
same,EC50,[3]; [4],1.5 µM
CC(Oc1cccc(CN(CCCOc2ccc(F)cc2)c2nc3cc4c(cc3o2)OCO4)c1)C(=O)O (stereo not drawn) [Example 169],EC50,[1]; [4],0.004 µM
same,EC50,[2]; [4],> 10 µM
same,EC50,[3]; [4],2 µM
CCC(Oc1cccc(CN(CCOc2ccc(F)cc2)c2nc3ccc(F)cc3o2)c1)C(=O)O (stereo not drawn) [Example 183],EC50,[1]; [4],0.004 µM
same,EC50,[2]; [4],0.4 µM
same,EC50,[3]; [4],2.4 µM
CC(Oc1cccc(CN(CCOc2ccc(F)cc2)c2nc3ccccc3o2)c1)C(=O)O (stereo not drawn) [Example 186],EC50,[1]; [4],0.02 µM
same,EC50,[2]; [4],5.5 µM
same,EC50,[3]; [4],10 µM
COc1ccc(OCCCN(Cc2cccc(OC(C)C(=O)O)c2)c2nc3cc(Cl)ccc3o2)cc1 (stereo not drawn) [Example 204],EC50,[1]; [4],0.01 µM
same,EC50,[2]; [4],1.6 µM
same,EC50,[3]; [4],1.8 µM
COc1ccc2oc(N(CCCOc3ccc(Cl)cc3)Cc3cccc(OC(C)C(=O)O)c3)nc2c1 (stereo not drawn) [Example 206],EC50,[1]; [4],0.01 µM
same,EC50,[2]; [4],1.4 µM
same,EC50,[3]; [4],1.7 µM
CCC(Oc1cccc(CN(CCOc2ccccc2)c2nc3cc(F)ccc3o2)c1)C(=O)O (stereo not drawn) [Example 229],EC50,[1]; [4],0.006 µM
same,EC50,[2]; [4],> 10 µM
same,EC50,[3]; [4],1.8 µM
CCC(Oc1cccc(CN(CCOc2ccc(OS(C)(=O)=O)cc2)c2nc3ccccc3o2)c1)C(=O)O (stereo not drawn) [Example 231],EC50,[1]; [4],0.013 µM
same,EC50,[2]; [4],> 10 µM
same,EC50,[3]; [4],> 100 µM
